Series [1] has as its system NIH-3T3 cell line (mouse embryonic fibroblast cells). Put plainly: MTT cytotoxicity, NIH-3T3 cells. In kind it is cell-based. As to conditions: 48 h treatment. Here is the method: (§1) C26 and NIH-3T3 cell lines were cultured at 37 °C in a 5% CO2/95% air humidified atmosphere in RPMI 1640 and DEMEM media, respectively; the media were supplemented with 10% FCS and 100 U/mL penicillin, and 100 μg/mL streptomycin.
(§2) C26 and NIH-3T3 cells were seeded at 5000 cells/well into 96-well plates. […] After 48 h incubation at 37 °C, the cells were washed with PBS and MTT (10 μL/well MTT and 100 μL/well cell media) was added. After an additional incubation for 4 h at 37 °C, the absorbance of MTT was measured using a microplate reader (Awareness Technology Inc., USA) at 570 nm. Relative cell death (R) was calculated as follows:
(§3) R = 1 − [(A sample − A blank)/(A control − A blank)], where A sample and A control are the absorbances of the cells incubated with the sample solutions and the culture medium as the control group, respectively. A blank is the absorbance of MTT solution in a well without cells. The IC50 values were calculated using CalcuSyn Version 2.0 software (BIOSOFT, UK)[52].

Series [2] is described as follows: Plasma Dox concentration and pharmacokinetics after i.v. administration. Type of series: in vivo, BALB/c mice. Conditions: Dox 10 mg/kg, mice.
Experimental: At different time points, 300 μL of blood were collected by retro-orbital puncture into EDTA containing tubes and were immediately centrifuged at room temperature for 10 min (4000×g) to obtain plasma. The resulting plasma samples were diluted with acidified isopropyl alcohol and were stored at 4 °C for 24 h.
The pharmacokinetic parameters were calculated using the Microsoft Excel add-in program PK Solver. The non-compartmental model was chosen to perform the pharmacokinetic analysis. This included the total area under the plasma concentration–time curve from time zero to time infinity (AUC), mean residence time (MRT), time-averaged total body clearance (CL), and terminal half-life (t1/2).
The next series relates to C26 cells. Kind of series: Dox cellular uptake by spectrofluorometry. In kind it is cell-based, mouse. Conditions: 1 and 3 h incubation, compared to Caelyx. Here is the method:
C26 cells were seeded at 1 × 10^6 cells/well in 6-well plates and incubated overnight. […] After 1 and 3 h of incubation at 37 °C, cells were washed with cold PBS. Then, acidified isopropyl alcohol (0.9 mL) was added to each well and transferred to a 2 mL vial and stored at 4 °C for 24 h. Samples were centrifuged for 10 min at 14,000 rpm.

The test system of series [3] is C26 cell line (murine colon carcinoma cells). Kind of series: MTT cytotoxicity, C26 cells. Type of series: cell-based, mouse. As to conditions: 48 h treatment. The protocol: as §1, §2, §3
In the next series the test system is C26 tumor. Kind of series: Anti-tumor efficacy and survival in mice bearing C26 colon cancer. As to conditions: single i.v. dose 10 mg/kg Dox.

Usually melting point stands for the temperature, or range, at which the solid turns liquid.

Experimental for C26 tumor: Tumors were then allowed to grow until inoculated mice had palpable tumors (8 days). […] Control mice received 200 µL of PBS. From the first day of treatment, the animals’ weight, tumor volume, and overall health were monitored three times a week for 60 days. Tumor volume was calculated with calipers in three dimensions using the following formula:
Tumor volume (mm^3) = (height × length × width) × 0.5.
For ethical consideration, the exclusion criteria were: (1) tumor enlargement (more than 2 cm in one dimension), (2) bodyweight loss of more than 15% of the initial mass, (3) to become sick or lethargic. The survival results were determined by Kaplan–Meier analysis. The time to reach the end-point (TTE) for each mouse was calculated from the line equation obtained by logarithmic regression of the tumor growth curve. The percent of tumor growth delay (%TGD) was calculated from the following formula[63]–[65]: %TGD=[meanTTEoftreatmentgroup-meanTTEofcontrolgroup/meanTTEofcontrolgroup]×100.

Regarding `O=C(O)CCCCCCCCC[Se][Se]CCCCCCCCCC(=O)O`, the melting point came out at 82 °C.
For the compound `COc1cccc2c1C(=O)c1c(O)c3c(c(O)c1C2=O)C[C@@](O)(C(=O)CO)C[C@@H]3O[C@H]1C[C@H](N)[C@H](O)[C@H](C)O1.Cl` [Dox, Doxorubicin hydrochloride], the “IC50 (NIH) 48 h” value in series [1] was 0.042 ± 0.013 µg/mL. Further, in series [2], the “AUC (total area under the plasma concentration-time curve)” value came to 7.20 µg·h/mL and the “Cl (clearance)” value is given as 1.38 (mg)/(μg/mL)/h. In addition, in the series with C26 cells, the “Cellular uptake of Dox (spectrofluorometry)” value is “highest cellular uptake”. In addition, the “IC50 (C26) 48 h” value in series [3] is recorded as 0.01 ± 0.010 µg/mL. Moreover, in the series on C26 tumor, the “MST (median survival time)” value stood at 33.10 days and the “TGD (tumor growth delay)” value is 10.12%. Moreover, the “TTE (time to reach end point) ± SD” value in the series on C26 tumor (C26 tumor, BALB/c mice, listed as Dox.HCl, 10 mg/kg) was found to be 32.40 ± 5.94 days.

Source of the values: publication PMC9253031, “Redox-sensitive doxorubicin liposome: a formulation approach for targeted tumor therapy” (Scientific Reports, 2022).
